Laboratory results: US12690608B2, “Arecoline salt and preparation method and product thereof” (priority 2020, dated 2026)

Experiments:
[1] = Comparison test on atomization (smoking machine, Cambridge filter, conversion rate k); format: physicochemical; details: concentrations 1-15%
[2] = Surface temperature of heating element while heating the heat-not-burn cigarette (infrared thermal imager)
Protocol: The heat-not-burn cigarette prepared by the above preparation method is heated by an aerosol generation apparatus (by means of resistance heating), and surface temperature of a heating element in a working state is tested by an infrared thermal imager.

smokers = assay: Comparison test on puff experience (scores by multiple smokers); format: in vivo; details: same content (3%)
Source text: An arecoline salt and an arecoline hydrobromide of the same content (3%) are selected for puff experience tests, and scores are given from 0 to 5 in terms of pleasure, increased heart rate, ruddy face, body fever, slight sweating and so on by evaluation of multiple smokers.

[3] = Physicochemical analysis: appearance on standing at room temperature; details: salt prepared at molar ratio of arecoline to benzoic acid of 1; viscous yellow oily substance

With `COC(=O)C1=CCCN(C)C1.O=C(O)c1ccccc1` [arecoline salt, benzoate of arecoline] the “Conversion rate compared with arecoline hydrobromide” value [1] was “obviously higher than that of the arecoline hydrobromide”, the “Temperature at which the arecoline salt in the cigarette can be atomized” value ([2]; in heat-not-burn cigarette, generates a smokable aerosol) was 150-250 °C and the “Puff duration (temperature) 1 s” value ([2]; surface temperature of heating element, resistance heating, heat-not-burn cigarette containing arecoline salt, puff duration 1 s) was 153.1 °C. The “Puff duration (temperature) 2 s” value ([2]; surface temperature of heating element, resistance heating, heat-not-burn cigarette containing arecoline salt, puff duration 2 s) was 228.3 °C, the “Puff duration (temperature) 3 s” value ([2]; surface temperature of heating element, resistance heating, heat-not-burn cigarette containing arecoline salt, puff duration 3 s) was 241.1 °C and the “Puff experience compared with arecoline hydrobromide (pleasure, increased heart rate, ruddy face, body fever, slight sweating)” value (smokers) was “obviously superior to the arecoline hydrobromide”. For the same molecule, the “Change of appearance when placed at room temperature” value [3] was “darkens slowly when placed at room temperature”.
